Values after ≈ are worked out from the molar mass of the structure shown. Active and inactive are the calls of the source. The calls are words filed in the database; no cut-off is given here.
Key:
Aspergillus niger = experiment: Antifungal activity against Aspergillus niger assessed as diameter of the zone of inhibition at 20 ug/disk by disk diffusion method; assay type: functional; conditions: for zone of inhibition at 20 µg/disc: read-out: DIZ
SW1990 = experiment: Cytotoxicity against human SW1990 cells; assay type: functional, cell-based
NCI-H460 = experiment: Cytotoxicity against human NCI-H460 cells; assay type: functional, cell-based
HeLa = experiment: Cytotoxicity against human HeLa cells; assay type: functional, cell-based
Alternaria brassicae = experiment: Antifungal activity against Alternaria brassicae assessed as diameter of the zone of inhibition at 20 ug/disk by disk diffusion method; assay type: functional; conditions: for zone of inhibition at 20 µg/disc: read-out: DIZ

| SMILES | zone of inhibition at 20 µg/disc (Aspergillus niger) [mm] | IC50 (SW1990) [µg/mL] | IC50 (NCI-H460) [µg/mL] | IC50 (HeLa) [µg/mL] | zone of inhibition at 20 µg/disc (Alternaria brassicae) [mm] | Activity (Aspergillus niger) | Activity (Alternaria brassicae) |
| --- | --- | --- | --- | --- | --- | --- | --- |
| CC(=O)O[C@H]1C[C@H]2[C@@H]3[C@@H](O)[C@@H](O)[C@H]4C[C@@H](O)CC[C@]4(C)[C@H]3[C@@H](O)C[C@]2(C)[C@H]1[C@H](C)/C=C/[C@H](C)C(C)C | 18 | 31 (≈ 61.2 µM) | 40 (≈ 78.9 µM) | 15 (≈ 29.6 µM) | 8 | – | – |
| CC(=O)O[C@H]1C[C@H]2[C@H]3[C@H]([C@@H](O)C[C@]2(C)[C@H]1[C@H](C)/C=C/[C@H](C)C(C)C)[C@@]1(C)CC[C@H](O)CC1=C[C@@H]3O | – | – | – | – | – | inactive | inactive |
| CC(=O)O[C@H]1C[C@H]2[C@H]3[C@H]([C@@H](O)C[C@]2(C)[C@H]1[C@H](C)/C=C/[C@H](C)C(C)C)[C@@]1(C)CC[C@H](O)C[C@@H]1C(=O)[C@@H]3O [ANICEQUOL] | – | – | – | – | 6 | Active | – |
| C[C@@H]1[C@H](O)[C@@H](C)/C=C/C=C/C=C/C=C/C=C/C=C/C=C/[C@H](O[C@@H]2O[C@H](C)[C@@H](O)[C@H](N)[C@@H]2O)C[C@@H]2O[C@](O)(C[C@@H](O)C[C@@H](O)[C@H](O)CC[C@@H](O)C[C@@H](O)CC(=O)O[C@H]1C)C[C@H](O)[C@H]2C(=O)O [AMPHOTERICIN B] | 24 | – | – | – | 16 | – | – |

— ChEMBL document CHEMBL1770064, “Penicisteroids A and B, antifungal and cytotoxic polyoxygenated steroids from the marine alga-derived endophytic fungus Penicillium chrysogenum QEN-24S” (Bioorg Med Chem Lett, 2011)
